US10016519B2, “18F-tagged inhibitors of prostate specific membrane antigen (PSMA), their use as imaging agents and pharmaceutical agents for the treatment of prostate cancer” (DEUTSCHES KREBSFORSCHUNGSZENTRUM, priority 2014, dated 2018)

Experiments:
[1] = test system: BALB/c nu/nu mice bearing LNCaP tumor; assay: Organ distribution; format: in vivo; conditions: 1 h after injection, tail vein, 60 pmol, n=3
Description: (§1) For in vivo experiments, 8 week old BALB/c nu/nu mice were subcutaneously inoculated into the right trunk with 5×10^6 LNCaP- or PC3-cells in 50% Matrigel. When the size of tumor was approximately 1 cm^3, the radiolabeled compound was injected via the tail vein (ca. 30 MBq, 60 pmol for μPET imaging; ca. 1 MBq, 60 pmol for organ distribution).
The F-18 labeled compounds were injected via tail vein (1-2 MBq per mouse; 60 pmol). At 1 h after injection, the animals were sacrificed. Organs of interest were dissected, blotted dry, and weighed. The radioactivity was measured with a gamma counter (Packard Cobra II, GMI, Minnesota, USA) and calculated as % ID/g.

PSMA = molecular target: T1, PSMA (Homo sapiens, UniProt Q04609); assay: Competitive cell binding assay (binding affinity); conditions: LNCaP cells, competition against 68Ga-labeled [Glu-urea-lys(Ahx)]2-HBED-CC radioligand, 0-5000 nM analyte
T1 construct: host or cells: LNCaP
Description: (§2) For binding studies and in vivo experiments LNCaP cells (metastatic lesion of human prostatic adenocarcinoma, ATCC CRL-1740) were cultured in RPMI medium supplemented with 10% fetal calf serum and Glutamax (PAA, Austria). During cell culture, cells were grown at 37° C. in an incubator with humidified air, equilibrated with 5% CO2. The cells were harvested using trypsin-ethylenediaminetetraacetic acid (trypsin-EDTA; 0.25% trypsin, 0.02% EDTA, all from PAA, Austria) and washed with PBS.
The competitive cell binding assay and internalization experiments were performed as described previously (Eder, M. et al., Bioconj. Chem 2012, 23, 688-697) Briefly, the respective cells (10^5 per well) were incubated with the radioligand (^68Ga-labeled [Glu-urea-lys(Ahx)]2-HBED-CC (Schafer, M. et al., EJNMMI Res. 2012; 2, 23) in the presence of 12 different concentrations of analyte (0-5000 nM, 100 μL/well). After incubation, washing was carried out using a multiscreen vacuum manifold (Millipore, Billerica, Mass.). Cell-bound radioactivity was measured using a gamma counter (Packard Cobra II, GMI, Minnesota, USA). The 50% inhibitory concentration (IC^50) was calculated by fitting the data using a nonlinear regression algorithm (GraphPad Software).
Experiments were performed three times. Reference is made to Table A below.

LNCaP cells = assay: Specific cell uptake and internalization; format: cell-based, human; conditions: for Internalized fraction: (Internalized activity/total activity)*100, LNCaP cells; for Cell surface / Internalised: LNCaP cells, 30 nM 18F-labeled compound, 45 min, 37° C., specific (blocking with 500 μM PMPA), mean±SD n=3
Description: FIG. 8: Internalization of compounds PSMA1001/1002/1003. All compounds were labeled with ^18F, and their specific cell surface binding and internalization properties on LNCaP cells were investigated. Specific cell uptake was determined by blocking with 500 μM-PMPA. Values are expressed as % of applied radioactivity bound to 10^5 cells. Data are expressed as mean±SD (n=3).
as §2
To determine the specific cell uptake and internalization, 10^5 cells were seeded in poly-L-lysine coated 24-well cell culture plates 24 h before incubation. After washing, the cells were incubated with 30 nM of the radiolabeled compounds for 45 min at 37° C. Specific cellular uptake was determined by competitive blocking with 2-(phosphonomethyl)pentanedioic acid (500 μM final concentration, PMPA, Axxora, Loerrach, Germany). Cellular uptake was terminated by washing 3 times with 1 mL of ice-cold PBS. Cells were subsequently incubated twice with 0.5 mL glycine-HCl in PBS (50 mM, pH=2.8) for 5 min to remove the surface-bound fraction. The cells were washed with 1 mL of ice-cold PBS and lysed using 0.3 N NaOH (0.5 mL). The surface-bound and the internalized fractions were measured in a gamma counter. The cell uptake was calculated as percent of the initially added radioactivity bound to 10^5 cells [% ID/10^5 cells].

[2] = test system: mice bearing LNCaP tumor xenografts; assay: Dynamic microPET imaging; format: in vivo
Description: FIG. 9: PET imaging of PSMA-1001. Whole-body coronal microPET images of an athymic male nude mice bearing LNCaP tumor xenografts. The tumor-targeting efficacy and pharmacokinetic properties of ^18F-PSMA-1001 were evaluated by dynamic microPET scans. Approximately 15 MBq/mouse were injected. […] The values are expressed as mean SUV (standardized uptake values).
Whole-body coronal microPET images of an athymic male nude mice bearing LNCaP tumor xenografts. […] Approximately 15 MBq/mouse were injected. […] The values are expressed as mean SUV (standardized uptake values).
as §1
For the microPET studies, 10-25 MBq of the radiolabeled compounds in a volume of 0.15 mL (˜60 pmol) were injected via a lateral tail vein into mice bearing LNCaP tumor xenografts. The anesthetized animals (2% sevoflurane, Abbott, Wiesbaden, Germany) were placed in prone position into the Inveon small animal PET scanner (Siemens, Knoxville, Tenn., USA) to perform dynamic microPET scans and 20 min-static scans.

T1 sequence (Q04609 whole entry): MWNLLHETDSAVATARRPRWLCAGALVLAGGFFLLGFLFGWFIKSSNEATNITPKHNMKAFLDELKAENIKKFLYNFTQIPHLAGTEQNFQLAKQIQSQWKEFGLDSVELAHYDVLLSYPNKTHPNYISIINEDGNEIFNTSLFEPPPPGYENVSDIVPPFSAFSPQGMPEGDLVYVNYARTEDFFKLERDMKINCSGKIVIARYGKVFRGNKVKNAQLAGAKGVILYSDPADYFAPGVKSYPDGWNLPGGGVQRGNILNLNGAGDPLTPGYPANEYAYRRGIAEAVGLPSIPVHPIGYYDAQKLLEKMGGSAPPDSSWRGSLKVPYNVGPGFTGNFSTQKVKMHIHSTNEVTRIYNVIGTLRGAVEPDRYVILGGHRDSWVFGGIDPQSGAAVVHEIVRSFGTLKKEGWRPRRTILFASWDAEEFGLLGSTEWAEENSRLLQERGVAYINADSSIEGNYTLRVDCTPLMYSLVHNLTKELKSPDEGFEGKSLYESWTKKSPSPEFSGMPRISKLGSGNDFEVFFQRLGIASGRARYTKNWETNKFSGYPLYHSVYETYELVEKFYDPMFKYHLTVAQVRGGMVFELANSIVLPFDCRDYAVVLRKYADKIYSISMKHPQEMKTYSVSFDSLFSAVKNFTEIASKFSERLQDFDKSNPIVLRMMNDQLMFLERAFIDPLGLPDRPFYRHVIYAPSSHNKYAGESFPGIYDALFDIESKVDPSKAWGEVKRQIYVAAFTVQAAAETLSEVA

Row | Molecule | Organ distribution, Blood, Mean [1] [% ID/g] | Organ distribution, Brain, Mean [1] [% ID/g] | Organ distribution, Heart, Mean [1] [% ID/g] | Organ distribution, Kidney, Mean [1] [% ID/g] | Organ distribution, LNCaP Tumor, Mean [1] [% ID/g] | Organ distribution, Liver, Mean [1] [% ID/g] | Organ distribution, Lung, Mean [1] [% ID/g] | Organ distribution, Muscle, Mean [1] [% ID/g] | Organ distribution, Small intestine, Mean [1] [% ID/g] | Organ distribution, Spleen, Mean [1] [% ID/g] | IC50 (PSMA) [nM] | Internalized fraction (LNCaP cells) [%] | Cell surface (LNCaP cells) [% ID/10^5 cells] | Internalised (LNCaP cells) [% ID/10^5 cells] | Tumor standardized uptake value (SUVmean,BW) ([2]; LNCaP tumor xenograft, time not stated) | Uptake in the kidneys (microPET) ([2]; LNCaP xenograft mice) | Uptake in the liver (microPET) ([2]; LNCaP xenograft mice)
1 | O=C(O)CC[C@H](NC(=O)N[C@@H](CCCCNC(=O)[C@H](Cc1ccc2ccccc2c1)NC(=O)c1ccc(CNC(=O)c2ccc([18F])nc2)cc1)C(=O)O)C(=O)O [PSMA-1003, (Glu)-(Urea)-((D)-Lys)-(2-Naphthylalanine)-(4-(Aminomethyl)benzoic acid)-FN] | 2.02 | 0.07 | 0.25 | 32.37 | 3.4 | 3.02 | 0.65 | 0.25 | 8.49 | 1.96 | – | – | – | – | – | – | –
2 | O=C(O)CC[C@H](NC(=O)N[C@@H](CCCCNC(=O)[C@H](Cc1ccc2ccccc2c1)NC(=O)[C@H]1CC[C@H](CNC(=O)c2ccc([18F])nc2)CC1)C(=O)O)C(=O)O [PSMA-1001, (Glu)-(Urea)-((D)-Lys)-(2-Naphthylalanine)-(4-(Aminomethyl)cyclohexanecarboxylic acid)-FN] | – | – | – | – | – | – | – | – | – | – | 3 | 26 | 8.4 ± 1.9 | 2.9 ± 0.3 | 0.5 | increasing uptake in the kidneys | high uptake in the liver
3 | (Glu)-(Urea)-((D)-Lys)-(2-Naphthylalanine)-(4-(Aminomethyl)benzoic acid)-FN [PSMA-1003] | – | – | – | – | – | – | – | – | – | – | 3 | 38 | 11.7 ± 1.2 | 7.1 ± 0.8 | – | – | –
4 | O=C(O)CCC(NC(=O)NC(CCCCNC(=O)C(Cc1ccc2ccccc2c1)NC(=O)c1ccc(CNC(=O)CO/N=C\C([18F])C(O)C(O)C(O)CO)cc1)C(=O)O)C(=O)O (stereo not shown) [PSMA-1005, (Glu)-(Urea)-(Lys)-(2Nal)-(Bn)-(Acetyl-FDG-Oxim)] | – | – | – | – | – | – | – | – | – | – | 7 | 63 | 1.1 ± 0.5 | 0.7 ± 0.4 | – | – | –
